How the values were obtained:
[1] = Cleavage (in-vitro digestion) experiments in FaSSGF medium, which simulates the stomach; format: in vitro ADME; details: cleavage experiments in FaSSGF or FaSSIF medium; stepwise release, retardation effect
Excerpt: By means of cleavage experiments it is shown that carboxylic acid esters of 3-hydroxybutanoate produced according to the invention or mixtures thereof (cf. previously described experiments according to I., II. and III.), including reaction by-products such as dimers, etc., can be cleaved in the human gastrointestinal tract.
In each case, purified reaction products obtained by the inventive method are used as starting mixtures (i.e. tartaric acid ester of 3-hydroxybutanoate, lactic acid ester of 3-hydroxybutanoate, succinic acid ester of 3-hydroxybutanoate, citric acid ester of 3-hydroxybutanoate, maleic acid ester of 3-hydroxybutanoate, fumaric acid ester of 3-hydroxybutanoate, malic acid ester of 3-hydroxybutanoate and adipic acid ester of 3-hydroxybutanoate).
For the cleavage experiments under near-body conditions two media are investigated: • FaSSGF, which simulates the stomach • FaSSIF, which simulates the intestinal tract
Both media are from the company Biorelevant®, Ltd. in Great Britain. In addition, in some experiments porcine pancreas is added (Panzytrat® 40,000, Fa. Allergan).
Under FaSSIF conditions, a lower conversion using Panzytrat® takes place.
Accordingly, the cleavage experiments of dicarboxylic acid esters of 3-hydroxybutanoates also proceed in a cascade. Thus, a retardation effect is present overall.

[2] = even if several grams are taken; patients; cited from earlier work

Compound: CCOC(=O)CC(C)OC(=O)CC(O)(CC(=O)OC(C)CC(=O)OCC)C(=O)OC(C)CC(=O)OCC (centres unmarked) [1,2,3-tris-(4-ethoxy-4-oxobutan-2yl)-2-hydroxypropane-1,2,3-tricarboxylate]
- course of the cleavage of 3-hydroxybutanoate [1]: proceeds in a cascade

Compound: CC(O)CC(=O)O (centres unmarked) [3-hydroxybutyric acid]
- duration of ketosis [2]: about three to four
